# Experiment: Cytotoxicity assay (AlamarBlue) in mock infected MT-2 cells
# Type: cell-based
# Settings: human
# Experimental: The present assay was used to screen candidate antiviral compounds by quantification of virus spread and production over several rounds of infection in vitro. MT-2, a HIV-1 permissive human T-cell line, was seeded in microtiter plates and was simultaneously treated with serially diluted compound and inoculated with a HIV-1 NL4-3 viral clone engineered to express Renilla luciferase in place of Nef. Following treatment, the culture was incubated for 96 hours. After the incubation, media was collected and used to estimate relative infectivity on the indicator cell line, TZM-bl. Additionally, viral spread was quantified by measuring luciferase activity via a commercially available luciferase substrate. In parallel, MT-2 cells were seeded and inoculated with mock virus in the presence of serially diluted compound. Compound toxicity was quantified 96 hours after treatment with AlamarBlue.
# MT-2 (NIH Aids reagent program 237) cells were grown and maintained in an incubator at 37° C. with 5% CO2 using a basal medium of RPMI-1640 supplemented with 10% FBS. Cells were seeded in 100 μl at 2×10^4 cells/well in white walled 96-well microtiter plates. Candidate compounds were 3-fold serially diluted in the appropriate solvent. Solvent without compound was used as a no drug reference. Cells were inoculated at a multiplicity of 0.027 with an HIV-1 NL4-3 virus stock engineered to express Renilla luciferase in place of Nef. Diluted virus stock was first added to serially diluted compound. Compound and virus were delivered to cells in an equal volume (100 μl) and treated cultures were returned to the incubator for 96 hours. In parallel, plates for cytotoxicity estimates were prepared in the same way except cells were plated in clear walled 96-well microtiter plates and were mock infected.
# At 96 hours post treatment, 20 μl AlamarBlue proliferation reagent was added to 200 μl treated and mock infected cultures and incubated for 3 hours at 37° C. with 5% CO2 then read at 545, 590 nm on fluorescence plate reader (Biotek).
# For all assays, data was imported into Accelrys Assay Explorer 3.3. In Assay Explorer, % inhibition (antiviral or cytotoxicity) was calculated using the solvent control as a reference by the following equation: 1−(SignalCompound/SignalReference). The % Inhibition and compound concentration data was fitted using the following 4-parameter logistic model (Assay Explorer model 42):
# [formula] where X is compound concentration, Y is % inhibition, D is the maximum % Inhibition (constrained to 100%), C is IC50 value or inflection point, B is the hill slope, and A is the minimum % inhibition (constrained to 0%). The IC50 value is reported as the EC50 or CC50 depending on the assay endpoint. EC50 represents the effective concentration at which virus replication is inhibited by 50 percent. CC50 represents the concentration that results in the death of 50 percent of the host cells. The selectivity or therapeutic index (SI or TI), is the ratio of CC50 over EC50 and represents the relative effectiveness in inhibiting viral replication compared to inducing cell death.
row,Structure (SMILES),CC50 at 96 h [µM]
1,"COc1cc2c(cc1OCc1ccccc1)CCNC2/C=C/c1ccc(-n2ccnc2C)cc1 (stereo not shown) [DM, 6-(benzyloxy)-7-methoxy-1-[(E)-2-[4-(2-methyl-1H-imidazol-1-yl)phenyl]ethenyl]-1,2,3,4-tetrahydroisoquinoline]",21.1
2,"COc1cccc(-c2ncc(/C=C/C3NCCc4cc(OCc5ccccc5)c(OC)cc43)cn2)c1 (stereo not shown) [DN, 6-(benzyloxy)-7-methoxy-1-[(E)-2-[2-(3-methoxyphenyl)pyrimidin-5-yl]ethenyl]-1,2,3,4-tetrahydroisoquinoline]",17.1
3,"CCN1CCN(c2ccc(/C=C/C3NCCc4cc(OCc5ccccc5)c(OC)cc43)cc2)CC1 (stereo not shown) [DO, 6-(benzyloxy)-1-[(E)-2-[4-(4-ethylpiperazin-1-yl)phenyl]ethenyl]-7-methoxy-1,2,3,4-tetrahydroisoquinoline]",3.61
4,"COc1cc2c(cc1OCc1ccccc1)CCNC2/C=C/c1cn(C)c2ncccc12 (stereo not shown) [DP, 6-(benzyloxy)-7-methoxy-1-[(E)-2-{1-methyl-1H-pyrrolo[2,3-b]pyridin-3-yl}ethenyl]-1,2,3,4-tetrahydroisoquinoline]",1.3
5,"COc1cc2c(cc1OCc1ccccc1)CCNC2/C=C/c1cccc(-c2ccncc2)c1 (stereo not shown) [DQ, 6-(benzyloxy)-7-methoxy-1-[(E)-2-[3-(pyridin-4-yl)phenyl]ethenyl]-1,2,3,4-tetrahydroisoquinoline]",4.4
6,"COc1cc2c(cc1OCc1ccccc1)CCNC2/C=C/c1cscn1 (stereo not shown) [DR, 6-(benzyloxy)-7-methoxy-1-[(E)-2-(1,3-thiazol-4-yl)ethenyl]-1,2,3,4-tetrahydroisoquinoline]",25.4
7,"COc1cc2c(cc1OCc1ccccc1)CCNC2/C=C/c1ccc(-c2cncnc2)cc1 (stereo not shown) [DS, 6-(benzyloxy)-7-methoxy-1-[(E)-2-[4-(pyrimidin-5-yl)phenyl]ethenyl]-1,2,3,4-tetrahydroisoquinoline]",7.39
8,"COc1cc2c(cc1OCc1ccccc1)CCNC2/C=C/c1ccc(-n2cncn2)cc1 (stereo not shown) [DT, 6-(benzyloxy)-7-methoxy-1-[(E)-2-[4-(1H-1,2,4-triazol-1-yl)phenyl]ethenyl]-1,2,3,4-tetrahydroisoquinoline]",7.39
9,"COc1cc2c(cc1OCc1ccccc1)CCNC2/C=C/c1cc2ccccc2s1 (stereo not shown) [DU, 1-[(E)-2-(1-benzothiophen-2-yl)ethenyl]-6-(benzyloxy)-7-methoxy-1,2,3,4-tetrahydroisoquinoline]",16.3
10,"COc1cc2c(cc1OCc1ccccc1)CCNC2/C=C/c1nccs1 (stereo not shown) [DV, 6-(benzyloxy)-7-methoxy-1-[(E)-2-(1,3-thiazol-2-yl)ethenyl]-1,2,3,4-tetrahydroisoquinoline]",21.8
11,"COc1cc2c(cc1OCc1ccccc1)CCNC2/C=C/c1ccc(N2CCN(C)CC2)cc1 (stereo not shown) [DW, 6-(benzyloxy)-7-methoxy-1-[(E)-2-[4-(4-methylpiperazin-1-yl)phenyl]ethenyl]-1,2,3,4-tetrahydroisoquinoline]",2.31
12,"COc1cc2c(cc1OCc1ccccc1)CCNC2/C=C/c1ccccc1N1CCCCC1 (stereo not shown) [DX, 6-(benzyloxy)-7-methoxy-1-[(E)-2-[2-(piperidin-1-yl)phenyl]ethenyl]-1,2,3,4-tetrahydroisoquinoline]",5.38
13,"COc1cc2c(cc1OCc1ccccc1)CCNC2/C=C/c1scnc1C (stereo not shown) [DY, 6-(benzyloxy)-7-methoxy-1-[(E)-2-(4-methyl-1,3-thiazol-5-yl)ethenyl]-1,2,3,4-tetrahydroisoquinoline]",21.6
14,"COc1cc2c(cc1OCc1ccccc1)CCNC2/C=C/c1ccc(-c2ccccn2)cc1 (stereo not shown) [DZ, 6-(benzyloxy)-7-methoxy-1-[(E)-2-[4-(pyridin-2-yl)phenyl]ethenyl]-1,2,3,4-tetrahydroisoquinoline]",5.8
15,"COc1cc2c(cc1OCc1ccccc1)CCNC2/C=C/c1ccc(N2CCCCC2)cc1 (stereo not shown) [EA, 6-(benzyloxy)-7-methoxy-1-[(E)-2-[4-(piperidin-1-yl)phenyl]ethenyl]-1,2,3,4-tetrahydroisoquinoline]",4.8
16,"COc1cc2occc2cc1/C=C/C1NCCc2cc(OCc3ccccc3)c(OC)cc21 (stereo not shown) [EB, 6-(benzyloxy)-7-methoxy-1-[(E)-2-(6-methoxy-1-benzofuran-5-yl)ethenyl]-1,2,3,4-tetrahydroisoquinoline]",6
17,"COc1cc2c(cc1OCc1ccccc1)CCNC2/C=C/c1cccc(-c2ncco2)c1 (stereo not shown) [EC, 6-(benzyloxy)-7-methoxy-1-[(E)-2-[3-(1,3-oxazol-2-yl)phenyl]ethenyl]-1,2,3,4-tetrahydroisoquinoline]",7.5
18,"COc1cc2c(cc1OCc1ccccc1)CCNC2/C=C/c1ccc(-c2ncco2)cc1 (stereo not shown) [ED, 6-(benzyloxy)-7-methoxy-1-[(E)-2-[4-(1,3-oxazol-2-yl)phenyl]ethenyl]-1,2,3,4-tetrahydroisoquinoline]",7.5
19,"CCOC(=O)c1coc(-c2ccc(/C=C/C3NCCc4cc(OCc5ccccc5)c(OC)cc43)cc2)n1 (stereo not shown) [EE, ethyl 2-{4-[(E)-2-[6-(benzyloxy)-7-methoxy-1,2,3,4-tetrahydroisoquinolin-1-yl]ethenyl]phenyl}-1,3-oxazole-4-carboxylate]",5.9
20,"CCOC(=O)c1coc(-c2cccc(/C=C/C3NCCc4cc(OCc5ccccc5)c(OC)cc43)c2)n1 (stereo not shown) [EF, ethyl 2-{3-[(E)-2-[6-(benzyloxy)-7-methoxy-1,2,3,4-tetrahydroisoquinolin-1-yl]ethenyl]phenyl}-1,3-oxazole-4-carboxylate]",5.9
21,"COc1cc2c(cc1OCc1ccccc1)CCNC2/C=C/c1ccc2c(c1)OCC2 (stereo not shown) [EG, 6-(benzyloxy)-1-[(E)-2-(2,3-dihydro-1-benzofuran-6-yl)ethenyl]-7-methoxy-1,2,3,4-tetrahydroisoquinoline]",19.3
22,"COc1cc(OC)c(/C=C/C2NCCc3cc(OCc4ccccc4)c(OC)cc32)cc1C (stereo not shown) [EH, 6-(benzyloxy)-1-[(E)-2-(2,4-dimethoxy-5-methylphenyl)ethenyl]-7-methoxy-1,2,3,4-tetrahydroisoquinoline]",3.59
23,"COc1ccc(/C=C/C2NCCc3cc(OCc4ccccc4)c(OC)cc32)cc1C (stereo not shown) [EI, 6-(benzyloxy)-7-methoxy-1-[(E)-2-(4-methoxy-3-methylphenyl)ethenyl]-1,2,3,4-tetrahydroisoquinoline]",11.8
24,"COc1cc2c(cc1OCc1ccccc1)CCNC2/C=C/c1ccc(OC)c(C)c1C (stereo not shown) [EL, 6-(benzyloxy)-7-methoxy-1-[(E)-2-(4-methoxy-2,3-dimethylphenyl)ethenyl]-1,2,3,4-tetrahydroisoquinoline]",3.25
25,"COc1ccc(/C=C/C2NCCc3cc(OCc4ccccc4)c(OC)cc32)cc1CN1CCCCC1 (stereo not shown) [EM, 6-(benzyloxy)-7-methoxy-1-[(E)-2-[4-methoxy-3-(piperidin-1-ylmethyl)phenyl]ethenyl]-1,2,3,4-tetrahydroisoquinoline]",1.8
26,"COc1ccc(/C=C/C2NCCc3cc(OCc4ccccc4)c(OC)cc32)cc1Cn1ccnc1C (stereo not shown) [EN, 6-(benzyloxy)-7-methoxy-1-[(E)-2-{4-methoxy-3-[(2-methyl-1H-imidazol-1-yl)methyl]phenyl}ethenyl]-1,2,3,4-tetrahydroisoquinoline]",4.03
27,"COc1ccc(/C=C/C2NCCc3cc(OCc4ccccc4)c(OC)cc32)cc1COCC(F)(F)F (stereo not shown) [EO, 6-(benzyloxy)-7-methoxy-1-[(E)-2-{4-methoxy-3-[(2,2,2-trifluoroethoxy)methyl]phenyl}ethenyl]-1,2,3,4-tetrahydroisoquinoline]",1.94
28,"COc1cc2c(cc1OCc1ccccc1)CCNC2/C=C/c1ccc(C(=O)O)cc1 (stereo not shown) [EQ, 4-[(E)-2-[6-(benzyloxy)-7-methoxy-1,2,3,4-tetrahydroisoquinolin-1-yl]ethenyl]benzoic acid]",10
29,"COc1cc2c(cc1OCc1ccccc1)CCNC2/C=C/c1cccc(C(=O)O)c1 (stereo not shown) [ER, 3-[(E)-2-[6-(benzyloxy)-7-methoxy-1,2,3,4-tetrahydroisoquinolin-1-yl]ethenyl]benzoic acid]",10

# Same assay, conditions: human; mock infected MT-2 cells, 96 hours, AlamarBlue; read-out: CC50
row,Structure (SMILES),CC50 at 96 h [µM]
1,"COc1cccc(/C=C/C2NCCc3cc(OCc4ccccc4)c(OC)cc32)c1 (stereo not shown) [EJ, 6-(benzyloxy)-7-methoxy-1-[(E)-2-(3-methoxyphenyl)ethenyl]-1,2,3,4-tetrahydroisoquinoline]",10
2,"COc1ccc(OC)c(/C=C/C2NCCc3cc(OCc4ccccc4)c(OC)cc32)c1 (stereo not shown) [EK, 6-(benzyloxy)-1-[(E)-2-(2,5-dimethoxyphenyl)ethenyl]-7-methoxy-1,2,3,4-tetrahydroisoquinoline]",3.6

# Reference: patent publication US9518022B2, “Anti-HIV compounds” (priority 2014, dated 2016)
